Common to all, as to type: in vitro ADME, Alopecurus myosuroides
One data set has as its system AmCYP03b (Seq ID 6). As to the kind of experiment: Herbicide degradation in transgenic yeast cells expressing cytochrome P450 AmCYP03b. The settings on record: transgenic yeast cells (S. cerevisiae BJ5459) expressing AmCYP03b, recovery of herbicide in reference to control, UPLC-MS/MS. From the text: (§1) The cDNA of CYP450 monooxygenase genes were synthesized with an optimized codon usage for yeast, cloned via uniqueBamHI-SalI restriction sites in the low copy pESC-ura expression vector (Agilent Technologies). Constructs were transformed into S. cerevisiae wild type strain BJ5459 (MATa ura3-5 trp lys2-801 leu2Δ1 his3Δ200 pep4Δ::HIS3 prb1Δ1.6R can1 GAL cir^+; ATCC 208284) using a Yeast Maker Transformation System from Clontech and verified by colony PCR. Positive clones were selected on minimal synthetic-defined media (SD) supplemented with appropriate dropout solution. The strain had no obvious phenotypes. Cells were induced in SG-Ura medium (same composition as SD but with galactose instead of glucose) for 24 h (Pompon et al., Methods in Enzymology 272:51-64 (1996); Urban et al., Eur. J. Biochem. 222:[…] (1994)). Optimal heterologous protein expression was assayed using Western Blot analysis.
(§2) 96 deep well growth plates (STARLAB GmbH) charged with 700 μL SDA medium are inoculated with the respective yeast strains from cryostock and incubated at 30° C., 400 rpm. After 48 h, an aliquot is transferred into a new plate with fresh SDA medium 400 rpm. After 4 h the cultures are spun down, the supernatant discarded and the pellets resuspended in 700 μL pre-warmed SGA media to induce protein expression at 30° C. and 400 rpm. After an incubation time of 24 h, 7 μL herbicide solution (500 μM DMSO stock solution) or solvent control is added to the yeast culture incubated for additional 24 h. The herbicide conversion is stopped by adding 700 μL acetonitrile followed by ultrasonification. The homogenate is prepared for UPLC-MS/MS analysis. The degradation rate was calculated by the determination of the recovery of the herbicide in reference to the control.

The test system of a further data set is AmCYP04 (Seq ID 27). Briefly: Herbicide degradation in transgenic yeast cells expressing cytochrome P450 AmCYP04. The settings on record: transgenic yeast cells (S. cerevisiae BJ5459) expressing AmCYP04, Seq ID 27, recovery of herbicide in reference to control, UPLC-MS/MS.
Source text: as §1, §2

Another data set deals with AmCYP03_1 (Seq ID 4). Briefly: Herbicide degradation in transgenic yeast cells expressing cytochrome P450 AmCYP03_1. To be noted: transgenic yeast cells (S. cerevisiae BJ5459) expressing AmCYP03_1, Seq ID 4, recovery of herbicide in reference to control, UPLC-MS/MS.
Source text: as §1, §2

The next data set deals with AmCYP12_1 (Seq ID 45). As to the kind of experiment: Herbicide degradation in transgenic yeast cells expressing cytochrome P450 AmCYP12_1. To be noted: transgenic yeast cells (S. cerevisiae BJ5459) expressing AmCYP12_1, Seq ID 45, recovery of herbicide in reference to control, UPLC-MS/MS.
Source text: as §1, §2

Another data set deals with AmCYP01 (Seq ID 2). Briefly: Herbicide degradation in transgenic yeast cells expressing cytochrome P450 AmCYP01. To be noted: transgenic yeast cells (S. cerevisiae BJ5459) expressing AmCYP01, Seq ID 2, recovery of herbicide in reference to control, UPLC-MS/MS.
Source text: as §1, §2

As for `COc1ccc(C2=C(O)c3ncccc3C(C)(C)S2(=O)=O)c(C(F)(F)F)n1` [Coumarone-derivative 8, 7-[6-methoxy-2-(trifluoromethyl)-3-pyridyl]-5,5-dimethyl-6,6-dioxo-thiopyrano[4,3-b]pyridin-8-ol], the “Degradation rate of listed herbicidal compounds within 24 h” value (shortened to “Degradation rate”) is 0 with AmCYP03b (Seq ID 6); 0 in the data set on AmCYP04 (Seq ID 27); 10 in the data set with AmCYP03_1 (Seq ID 4); 3 in the data set with AmCYP12_1 (Seq ID 45); 0 with AmCYP01 (Seq ID 2).

In the case of `CC1(C)c2cccnc2C(O)=C(c2ccc(Cl)nc2Cl)S1(=O)=O` [Coumarone-derivative 5, 7-(2,6-dichloro-3-pyridyl)-5,5-dimethyl-6,6-dioxo-thiopyrano[4,3-b]pyridin-8-ol], the “Degradation rate” value in the data set on AmCYP03b (Seq ID 6) worked out at 17; in the data set on AmCYP04 (Seq ID 27), 22; in the data set with AmCYP03_1 (Seq ID 4) it was 2; in the data set on AmCYP12_1 (Seq ID 45), 15; in the data set with AmCYP01 (Seq ID 2), 14.

As for `Cc1c(Cl)ccc(Cl)c1C1=C(O)c2ncccc2C(C)(C)S1(=O)=O` [Coumarone-derivative 11, 7-(3,6-dichloro-2-methyl-phenyl)-5,5-dimethyl-6,6-dioxo-thiopyrano[4,3-b]pyridin-8-ol], the “Degradation rate” value is given as 18 with AmCYP03b (Seq ID 6); 0 in the data set on AmCYP04 (Seq ID 27); 0 in the data set on AmCYP03_1 (Seq ID 4); 0 with AmCYP12_1 (Seq ID 45); 0 in the data set with AmCYP01 (Seq ID 2).

With `O=S1(=O)Oc2cccnc2C(O)=C1c1c(Cl)cccc1C(F)(F)F` [Coumarone-derivative 4, 3-[2-chloro-6-(trifluoromethyl)phenyl]-2,2-dioxo-oxathiino[5,6-b]pyridin-4-ol], the “Degradation rate” value in the data set on AmCYP03b (Seq ID 6) was 7; in the data set with AmCYP04 (Seq ID 27), 12; with AmCYP03_1 (Seq ID 4) it was 4; in the data set on AmCYP12_1 (Seq ID 45), 4; in the data set with AmCYP01 (Seq ID 2), 0.

Regarding `O=S1(=O)C(c2c(Cl)cc(Cl)nc2Cl)=C(O)c2ncccc2N1CC(F)F` [Coumarone-derivative 1, 1-(2,2-difluoroethyl)-2,2-dioxo-3-(2,4,6-trichloro-3-pyridyl)pyrido[3,2-c]thiazin-4-ol], the “Degradation rate” value in the data set on AmCYP03b (Seq ID 6) turned out to be 18; with AmCYP04 (Seq ID 27), 31; with AmCYP03_1 (Seq ID 4), 25; in the data set with AmCYP12_1 (Seq ID 45) it was 10; in the data set with AmCYP01 (Seq ID 2) it was 0.

Consider `CC1=NOC(c2c(Cl)ccc(C3=C(O)c4ncccc4C(C)(C)S3(=O)=O)c2Cl)C1` (stereo not drawn) [Coumarone-derivative 6, 7-[2,4-dichloro-3-(3-methyl-4,5-dihydroisoxazol-5-yl)phenyl]-5,5-dimethyl-6,6-dioxo-thiopyrano[4,3-b]pyridin-8-ol], for which the “Degradation rate” value is recorded as 0 in the data set with AmCYP03b (Seq ID 6); 0 with AmCYP04 (Seq ID 27); 2 with AmCYP03_1 (Seq ID 4); 4 in the data set with AmCYP12_1 (Seq ID 45); 1 with AmCYP01 (Seq ID 2).

As to `N#Cc1ccc(C2=C(O)c3ncccc3N(CC(F)F)S2(=O)=O)c(C(F)(F)F)c1` [Coumarone-derivative 2, 4-[1-(2,2-difluoroethyl)-4-hydroxy-2,2-dioxo-pyrido[3,2-c]thiazin-3-yl]-3-(trifluoromethyl)benzonitrile], the “Degradation rate” value is recorded as 7 with AmCYP03b (Seq ID 6); 0 in the data set on AmCYP04 (Seq ID 27); 16 in the data set with AmCYP03_1 (Seq ID 4); 24 in the data set with AmCYP12_1 (Seq ID 45); 0 in the data set on AmCYP01 (Seq ID 2).

For the molecule `CCC(CC)Nc1c([N+](=O)[O-])cc(C)c(C)c1[N+](=O)[O-]` [pendimethalin, reference compound], the “Degradation rate” value is recorded as 24 in the data set with AmCYP03b (Seq ID 6); 25 with AmCYP04 (Seq ID 27); 24 in the data set with AmCYP03_1 (Seq ID 4); 16 in the data set with AmCYP12_1 (Seq ID 45); 13 in the data set on AmCYP01 (Seq ID 2).

On to `CN(c1c(Cl)ccc(C2=C(O)c3ncccc3C(C)(C)S2(=O)=O)c1Cl)S(C)(=O)=O` [Coumarone-derivative 10, N-[2,6-dichloro-3-(8-hydroxy-5,5-dimethyl-6,6-dioxo-thiopyrano[4,3-b]pyridin-7-yl)phenyl]-N-methyl-methanesulfonamide], for which the “Degradation rate” value was 9 in the data set with AmCYP03b (Seq ID 6); 19 in the data set with AmCYP04 (Seq ID 27); 15 with AmCYP03_1 (Seq ID 4); 0 with AmCYP12_1 (Seq ID 45); 0 in the data set with AmCYP01 (Seq ID 2).

Consider `O=S1(=O)C(c2c(Cl)cc(Cl)nc2Cl)=C(O)c2ncccc2N1CC(F)F` [Coumarone-derivative 9, 1-(2,2-difluoroethyl)-2,2-dioxo-3-(2,4,6-trichloro-3-pyridyl)pyrido[3,2-c]thiazin-4-ol], for which the “Degradation rate” value was found to be 5 with AmCYP03b (Seq ID 6); 18 in the data set with AmCYP04 (Seq ID 27); 12 in the data set with AmCYP03_1 (Seq ID 4); 0 with AmCYP12_1 (Seq ID 45); 0 in the data set with AmCYP01 (Seq ID 2).

Turning to `O=S1(=O)Cc2cccnc2C(O)=C1c1ccccc1C(F)(F)F` [Coumarone-derivative 3, 6,6-dioxo-7-[2-(trifluoromethyl)phenyl]-5H-thiopyrano[4,3-b]pyridin-8-ol], the “Degradation rate” value with AmCYP03b (Seq ID 6) came out at 0; in the data set with AmCYP04 (Seq ID 27), 9; in the data set with AmCYP03_1 (Seq ID 4) it was 0; in the data set on AmCYP12_1 (Seq ID 45), 27; in the data set with AmCYP01 (Seq ID 2) it was 0.

With `COCCOCc1c(Cl)ccc(C2=C(O)c3ncccc3C(C)(C)S2(=O)=O)c1Cl` [Coumarone-derivative 7, 7-[2,4-dichloro-3-(2-methoxyethoxymethyl)phenyl]-5,5-dimethyl-6,6-dioxo-thiopyrano[4,3-b]pyridin-8-ol], the “Degradation rate” value in the data set with AmCYP03b (Seq ID 6) was 6; with AmCYP04 (Seq ID 27) it was 7; with AmCYP03_1 (Seq ID 4) it was 14; in the data set on AmCYP12_1 (Seq ID 45), 5; in the data set on AmCYP01 (Seq ID 2) it was 0.

For the origin of these results see patent publication US10294488B2, “Herbicide-metabolizing cytochrome P450 monooxygenases” (BASF SE, priority 2012, dated 2019).
